Data on one compound can be found in PMC6934184, “Selective DNA-PKcs inhibition extends the therapeutic index of localized radiotherapy and chemotherapy” (The Journal of Clinical Investigation, 2019).

The target of this assay is T1, MAP4K5 (KHS1) (Homo sapiens, UniProt Q9Y4K4).
T1 construct: purchased Thermo Fisher Scientific (Life Technologies) SelectScreen
In words: SelectScreen Z'LYTE. Type of assay: biochemical. The procedure, abridged:
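Percent values come from Thermo SelectScreen profiling of NU5455, combining activity and binding assays. CSF1R was run in Z'LYTE format at Km app ATP, and CAMK1 in Adapta format with ATP listed at 10.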

As a reminder, the inhibition is the change of the read-out against control, counted positive when it falls.

Each structure is given as a SMILES string.

T1 sequence (Q9Y4K4 whole entry): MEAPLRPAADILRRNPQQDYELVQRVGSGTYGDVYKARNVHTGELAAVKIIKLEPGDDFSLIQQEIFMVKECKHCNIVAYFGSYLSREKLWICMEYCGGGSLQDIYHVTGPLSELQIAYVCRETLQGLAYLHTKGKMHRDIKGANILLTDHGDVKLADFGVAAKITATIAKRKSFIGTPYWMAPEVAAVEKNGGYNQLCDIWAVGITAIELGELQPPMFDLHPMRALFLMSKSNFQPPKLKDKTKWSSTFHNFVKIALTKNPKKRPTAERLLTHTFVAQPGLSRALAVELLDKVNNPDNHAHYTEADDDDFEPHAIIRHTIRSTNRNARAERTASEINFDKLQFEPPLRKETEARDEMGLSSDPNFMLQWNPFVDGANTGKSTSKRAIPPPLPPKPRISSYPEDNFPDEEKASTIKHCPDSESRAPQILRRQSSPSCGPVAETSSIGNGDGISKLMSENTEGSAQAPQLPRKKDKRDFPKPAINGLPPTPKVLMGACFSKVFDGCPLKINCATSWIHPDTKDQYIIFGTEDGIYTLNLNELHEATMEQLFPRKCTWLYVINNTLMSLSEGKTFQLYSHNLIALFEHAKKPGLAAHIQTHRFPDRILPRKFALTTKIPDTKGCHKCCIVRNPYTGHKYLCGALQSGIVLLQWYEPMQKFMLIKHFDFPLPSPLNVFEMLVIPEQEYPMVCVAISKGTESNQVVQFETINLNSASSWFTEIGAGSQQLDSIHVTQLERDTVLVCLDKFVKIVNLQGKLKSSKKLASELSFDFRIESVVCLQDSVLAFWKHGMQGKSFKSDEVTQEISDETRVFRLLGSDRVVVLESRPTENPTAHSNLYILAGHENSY

For the compound `CN(C(=O)CN1CCOCC1)c1ccc2sc3c(-c4cccc5c(=O)cc(N6CC7CCC(C6)O7)oc45)cccc3c2c1` [NU5455], the inhibition at 1 µM is -2%.
